Measured values reported in patent US20220143222A1, “SUBCUTANEOUS AND INTRAMUSCULAR ADMINISTRATION OF PYRAZINE COMPOUNDS” (MediBeacon Inc., priority 2020, published 2022).
Like-named read-outs stand apart in the source and are kept apart here.

Tests used:
[1] = MB-102 pig plasma concentration after subcutaneous dosing; type: in vivo; settings: 3.2 mpk; for concentration at 15 min / concentration at 30 min / concentration at 45 min / concentration at 60 min / concentration at 75 min / concentration at 90 min / concentration at 105 min / concentration at 120 min / concentration at 135 min / concentration at 150 min / concentration at 165 min / concentration at 180 min / concentration at 195 min / concentration at 210 min / concentration at 225 min / concentration at 240 min / concentration at 255 min / concentration at 270 min / concentration at 285 min / concentration at 300 min / concentration at 315 min / concentration at 330 min / concentration at 345 min / concentration at 360 min: Yorkshire, pig, plasma, subcutaneous, 3.2 mg/kg, read-out: MB-102 Pig Plasma Conc.; for SUM (plasma conc. over time): 15-360 min
Text: (§1) Juvenile Yorkshire pigs weighing approximately 25 kg were anesthetized, their body temperature stabilized, and an IV port surgically placed. A region approximately half-way along the line between the hip and knee joint was selected as the injection site and prepared by cleaning the skin and removing any exposed hair by shaving the selected area at least twice. Similarly, the site where two Quantum Leap fluorescent sensors (disclosed in U.S. Pat. No. 10,548,521) were to be positioned (chest) was prepared by washing and shaving. After the skin was dry the sensors were attached with commercially available skin adhesive and background skin auto-fluorescence measurements were recorded. After about 20 minutes of background fluorescence collection the subject animal was dosed either intravenously (animal 48019) or subcutaneously (animals 52771, 53701 09802, or 1539) or intramuscularly (09801) with PBS-1× formulated MB-102 at 3.2 mg/kg. Injection of the appropriate volume took place over about a minute. […] At this point glomerular elimination of MB-102 by the kidneys led to a decrease of fluorescence signal over time. Blood samples (1.5 mL) were taken immediately prior to the introduction of MB-102 (0 minutes) and at 15 minute intervals throughout the procedure. Blood was collected in BD vacutainer K2EDTA tubes, spun to plasma and stored at −80° C. until analyzed. Subsequently, the processed plasma samples were thawed, diluted with PBS-1× and analyzed by HPLC or UPLC and the concentration of MB-102 determined using standard analytical techniques. Further details for each animal are provided in the examples that follow.
(§2) A sterile Mesoderm needle pack was obtained. The needle array featured five (5), 4 mm×30 gauge (0.30 mm dia) luer-hub needles arranged four (4) in a circular, symmetrical pattern (30 mm diameter) about a central needle and were attached via a distribution channel and a second luer-hub to a primary source syringe (3 mL in total deliverable volume). MB-102 API was formulated as 60 mg/mL of sodium salt in 1×PBS and placed in 5 mL serum cap vials. Immediately prior to dosing, the primary syringe was filled with a slight excess of the required amount of formulated MB-102 to achieve 3.2 mg/kg and the needle cap replaced until the subject animal and fluorescence monitor were ready for the experiment to begin and the injection initiated. Subject pig 52771 was dosed with 1.2 mL of MB-102 formulated in PBS-1× (3.2 mg/kg). […] Subject animal fluorescence was obtained during the entire course of the experiment (8 hrs) and blood samples were collected every 15 minutes, processed and stored at −80° C. Comparison of IV MB-102 plasma concentration versus time and subcutaneous MB-102 (both at 3.2 mg/kg dose) plasma concentration versus time are shown in FIG. 1.
(§3) Experimental animal Yorkshire pig, 53701, was subject to subcutaneous (subQ) administration of MB-102 as described in Example 8. […] Plasma sampling was conducted as described in Example 8 and the results (Table 1) are plotted in FIG. 1.
(§4) Experimental animal Yorkshire pig, 09802, was subject to subcutaneous (subQ) administration of MB-102 using a single needle in the same protocol as Example 8 but substituting a 2 mL syringe equipped with a single 4 mm×30 g needle. […] Plasma sampling was conducted as described in Example 8 and the results (Table 1) are plotted in FIG. 1.

[2] = Transdermal fluorescence signal at the chest after injection; type: in vivo, pig
Text: as §1, §2, §3, §4
Experimental animal Yorkshire pig, 09801, was subject to Intramuscular (IM) administration of MB-102 using substantially the same procedure as Example 8, but substituting a 2 mL syringe equipped with a single 13 mm×27 g needle. […] Blood sampling and processing was as described in Example 8 and the results (Table 1) are plotted in FIG. 6.
Experimental animal Yorkshire pig, 1539, was subject to subcutaneous (subQ) administration of MB-102 using a single needle in the same protocol as Example 10. […]

Structure (SMILES): Nc1nc(C(=O)N[C@H](CO)C(=O)O)c(N)nc1C(=O)N[C@H](CO)C(=O)O [MB-102, 3,6-diamino-2,5-bis{N-[(1R)-1-carboxy-2-hydroxyethyl]carbamoyl}pyrazine]
- concentration at 15 min ([1]; pig 09802, SubQ): 6670 ng/mL
- concentration at 30 min ([1]; pig 09802, SubQ): 7530 ng/mL
- concentration at 45 min ([1]; pig 09802, SubQ): 6850 ng/mL
- concentration at 60 min ([1]; pig 09802, SubQ): 6540 ng/mL
- concentration at 75 min ([1]; pig 09802, SubQ): 5490 ng/mL
- concentration at 90 min ([1]; pig 09802, SubQ): 5260 ng/mL
- concentration at 105 min ([1]; pig 09802, SubQ): 4810 ng/mL
- concentration at 120 min ([1]; pig 09802, SubQ): 4410 ng/mL
- concentration at 135 min ([1]; pig 09802, SubQ): 3900 ng/mL
- concentration at 150 min ([1]; pig 09802, SubQ): 3710 ng/mL
- concentration at 165 min ([1]; pig 09802, SubQ): 3500 ng/mL
- concentration at 180 min ([1]; pig 09802, SubQ): 3070 ng/mL
- concentration at 195 min ([1]; pig 09802, SubQ): 2720 ng/mL
- concentration at 210 min ([1]; pig 09802, SubQ): 2500 ng/mL
- concentration at 225 min ([1]; pig 09802, SubQ): 2200 ng/mL
- concentration at 240 min ([1]; pig 09802, SubQ): 1990 ng/mL
- concentration at 255 min ([1]; pig 09802, SubQ): 1730 ng/mL
- concentration at 270 min ([1]; pig 09802, SubQ): 1600 ng/mL
- concentration at 285 min ([1]; pig 09802, SubQ): 1430 ng/mL
- concentration at 300 min ([1]; pig 09802, SubQ): 1300 ng/mL
- concentration at 315 min ([1]; pig 09802, SubQ): 1180 ng/mL
- concentration at 330 min ([1]; pig 09802, SubQ): 1030 ng/mL
- concentration at 345 min ([1]; pig 09802, SubQ): 914 ng/mL
- concentration at 360 min ([1]; pig 09802, SubQ): 829 ng/mL
- concentration at 15 min ([1]; pig 52771, SubQ): 6130 ng/mL
- concentration at 30 min ([1]; pig 52771, SubQ): 8510 ng/mL
- concentration at 45 min ([1]; pig 52771, SubQ): 8790 ng/mL
- concentration at 60 min ([1]; pig 52771, SubQ): 8840 ng/mL
- concentration at 75 min ([1]; pig 52771, SubQ): 7840 ng/mL
- concentration at 90 min ([1]; pig 52771, SubQ): 6920 ng/mL
- concentration at 105 min ([1]; pig 52771, SubQ): 6070 ng/mL
- concentration at 120 min ([1]; pig 52771, SubQ): 5560 ng/mL
- concentration at 135 min ([1]; pig 52771, SubQ): 5000 ng/mL
- concentration at 150 min ([1]; pig 52771, SubQ): 4400 ng/mL
- concentration at 165 min ([1]; pig 52771, SubQ): 3950 ng/mL
- concentration at 180 min ([1]; pig 52771, SubQ): 3480 ng/mL
- concentration at 195 min ([1]; pig 52771, SubQ): 3190 ng/mL
- concentration at 210 min ([1]; pig 52771, SubQ): 2830 ng/mL
- concentration at 225 min ([1]; pig 52771, SubQ): 2500 ng/mL
- concentration at 240 min ([1]; pig 52771, SubQ): 2240 ng/mL
- concentration at 255 min ([1]; pig 52771, SubQ): 2000 ng/mL
- concentration at 270 min ([1]; pig 52771, SubQ): 1760 ng/mL
- concentration at 285 min ([1]; pig 52771, SubQ): 1630 ng/mL
- concentration at 330 min ([1]; pig 52771, SubQ): 1210 ng/mL
- concentration at 345 min ([1]; pig 52771, SubQ): 1140 ng/mL
- concentration at 360 min ([1]; pig 52771, SubQ): 1000 ng/mL
- concentration at 15 min ([1]; pig 53701, SubQ): 8110 ng/mL
- concentration at 30 min ([1]; pig 53701, SubQ): 7410 ng/mL
- concentration at 45 min ([1]; pig 53701, SubQ): 6620 ng/mL
- concentration at 60 min ([1]; pig 53701, SubQ): 5940 ng/mL
- concentration at 75 min ([1]; pig 53701, SubQ): 5260 ng/mL
- concentration at 90 min ([1]; pig 53701, SubQ): 4720 ng/mL
- concentration at 105 min ([1]; pig 53701, SubQ): 4230 ng/mL
- concentration at 120 min ([1]; pig 53701, SubQ): 3670 ng/mL
- concentration at 135 min ([1]; pig 53701, SubQ): 3250 ng/mL
- concentration at 150 min ([1]; pig 53701, SubQ): 3000 ng/mL
- concentration at 165 min ([1]; pig 53701, SubQ): 2640 ng/mL
- concentration at 180 min ([1]; pig 53701, SubQ): 2390 ng/mL
- concentration at 195 min ([1]; pig 53701, SubQ): 2170 ng/mL
- concentration at 210 min ([1]; pig 53701, SubQ): 1940 ng/mL
- concentration at 225 min ([1]; pig 53701, SubQ): 1670 ng/mL
- concentration at 240 min ([1]; pig 53701, SubQ): 1510 ng/mL
- concentration at 255 min ([1]; pig 53701, SubQ): 1350 ng/mL
- concentration at 270 min ([1]; pig 53701, SubQ): 1220 ng/mL
- concentration at 285 min ([1]; pig 53701, SubQ): 1090 ng/mL
- concentration at 300 min ([1]; pig 53701, SubQ): 987 ng/mL
- concentration at 315 min ([1]; pig 53701, SubQ): 867 ng/mL
- concentration at 330 min ([1]; pig 53701, SubQ): 800 ng/mL
- concentration at 345 min ([1]; pig 53701, SubQ): 704 ng/mL
- concentration at 360 min ([1]; pig 53701, SubQ): 631 ng/mL
- SUM (plasma conc. over time) ([1]; pig 09802, SubQ): 1,210,924 ng/mL*min
- SUM (plasma conc. over time) ([1]; pig 52771, SubQ): 1,413,823 ng/mL*min
- SUM (plasma conc. over time) ([1]; pig 53701, SubQ): 1,077,956 ng/mL*min
- time until fluorescence signal first observed ([2]; pig 1539, single needle subcutaneous): after a few minutes
- time until fluorescence signal first observed ([2]; pig 09801, single needle intramuscular): after a few minutes
- time until fluorescence signal first observed ([2]; pig 09802, single needle subcutaneous): after a few minutes
- time until transdermal fluorescent signal detectable ([2]; pig 52771, multi-needle subcutaneous, 3.2 mg/kg): Within a few minutes
- time until fluorescence signal first observed ([2]; pig 53701, multi-needle subcutaneous): after a few minutes
- time until fluorescent skin signal at the chest observed ([2]; pigs, 3.2 mg/kg IV, subcutaneous or intramuscular, typical): within several minutes post injection
